Experimental data from EP0863214A2, “Reporter gene construct for measuring G protein coupled receptor activation” (SMITHKLINE BEECHAM CORPORATION, priority 1997, dated 1998).
Ends that are not written are not given here.

system: HEK 293 cells transfected with MREII VIPII; type: cell-based, Human; details: wild-type HEK 293 cells or HEK 293 cells expressing the porcine CGRP receptor; endogenous receptors or direct activation of adenylyl cyclase; in the presence of IBMX
Experimental: Day 1: HEK293 cells at a density of 4.5x10^6/T-75 flask in Earl's Minimum Essential Medium (EMEM) supplemented with 10% fetal bovine serum and 2 mM glutamine were incubated overnight in a humidified tissue culture incubator at 37°C, 5% CO2.
Day 2: MREII VIPII DNA (7.8 µg) was mixed with 780 µl of serum free EMEM to produce Solution A. Lipofectamine (23.1 µl; Gibco-BRL) was mixed with 780 µl of serum EMEM to produce Solution B. Solutions A and B were then mixed gently and incubate at room temperature for 15-45 minutes. Cells were then rinsed with 15 ml of serum free EMEM and 6.25 ml of serum free EMEM was added. Combined solutions (A + B) were overlayed and the flask was placed in a tissue culture incubator for 5 hours. Media was replaced with 15 ml of EMEM/10% serum/ 2 mM glutamine and stored in the tissue culture incubator.
Day 3: Ninety-six well tissue culture plates were treated with Matrigel (50 µl/well diluted 1/50 with phosphate buffered saline (PBS); Collaborative Biomedical Products) for > 1 hour. Matrigel solution was then removed and the plate was transfected with HEK 293 cells at a cell density of 2.6 x 10^4/well in 100 µl of supplemented EMEM. […] Cells were then incubated for 6 hours in a humidified tissue culture incubator at 37°C, 5% CO2. Media was removed and cells were washed with 50 µl of PBS.
Cell lysis solution (50 µl; Promega) supplemented with AEBSF (0.24 mg/ml), pepstatin, leupeptin, and aprotinin (5µg/ml each), and DNAse I (50 µg/ml) was added and extracts were frozen. Ten microliters of thawed extract were added to assay plates along with 50 µl of reconstituted luciferase assay reagent (Promega) using a luminometer autoinjector (Dynex MLX) and samples were read. Luciferase activity is expressed as a fold enhancement over the basal luciferase activity expressed in cells that have not been challenged with agonist, IBMX, TPA, or forskolin.

`Nc1ncnc2c1ncn2[C@@H]1O[C@H](COP(=O)(O)OP(=O)(O)OP(=O)(O)O)[C@@H](O)[C@H]1O` [ATP] was tested. Which Luciferase stimulation did it give?
Its Luciferase stimulation is “did not stimulate luciferase induction”.

For `CCCCC[C@H](O)/C=C/[C@H]1[C@H](O)CC(=O)[C@@H]1C/C=C\CCCC(=O)O` [PGE2], which Luciferase stimulation is on record?
The Luciferase stimulation was “Luciferase stimulation was observed”.

How did the Luciferase stimulation turn out when `Nc1ncnc2c1ncn2[C@@H]1O[C@H](CO)[C@@H](O)[C@H]1O` [adenosine] was run?
The Luciferase stimulation was “did not stimulate luciferase induction”.

`C[N+](C)(C)CCOC(N)=O` [carbachol] was tested. Which Luciferase stimulation did it give?
The Luciferase stimulation was “did not stimulate luciferase induction”.

Which Luciferase stimulation does the source give for “VIP (HSDAVFTDNYTRLRKQMAVKKYLNSILN; not fully specified (C-terminus); ends and bridges not checked; UniProt P01282 125-152, looked up)” here?
Its Luciferase stimulation is “Luciferase stimulation was observed”.

“calcitonin (CGNLSTCMLGTYTQDFNKFHTFPQTAIGVGAP; not fully specified (C-terminus, bridges); ends and bridges not checked; UniProt P01258 85-116, looked up)” was tested. Which Luciferase stimulation did it give?
Its Luciferase stimulation is “Luciferase stimulation was observed”.

“endothelin (CSCSSLMDKECVYFCHLDIIW; not fully specified (bridges); ends and bridges not checked; UniProt P05305 53-73, looked up)” was tested. Which Luciferase stimulation did it give?
The Luciferase stimulation was “did not stimulate luciferase induction”.
